From the supplement of paper PMC5908809

Columns and labels:
[1] = tested on: normal NK cells expanded with K562-aAPC; experiment: percent inhibition of viability; higher = more inhibition; settings: 72 h, IL-2 2.5 ng/mL
Procedure: (§1)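 Drug sensitivity and resistance testing on K562-aAPC-expanded normal NK cells: 5 concentrations (10-fold steps over a 10,000-fold range), 72 h at 37 °C, viability by CellTiter-Glo normalised to DMSO and benzethonium chloride controls; DSS from the fitted curve.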

DERL-7 (IL-2 2.5 ng/mL) [2] = experiment: as above; settings: 72 h
IMC-1 (IL-2 20 ng/mL) [3] = experiment: as above; settings: 72 h
KAI3 (IL-2 2.5 ng/mL) [4] = experiment: as above; settings: 72 h
KHYG-1 (IL-2 2.5 ng/mL) [5] = experiment: as above; settings: 72 h
NK-92 (IL-2 2.5 ng/mL) [6] = experiment: as above; settings: 72 h
NK-YS (IL-2 2.5 ng/mL) [7] = experiment: as above; settings: 72 h
NKL (IL-2 2.5 ng/mL) [8] = experiment: as above; settings: 72 h
SNK-6 (IL-2 2.5 ng/mL) [9] = experiment: as above; settings: 72 h
YT (IL-2 2.5 ng/mL) [10] = experiment: as above; settings: 72 h
[11] = tested on: normal primary NK cells, pool 1 (3 donors) (IL-2 2.5 ng/mL); experiment: as above; settings: 72 h
[12] = tested on: normal primary NK cells, pool 1 (3 donors), resting (IL-2 0 ng/mL); experiment: as above; settings: 72 h
[13] = tested on: normal primary NK cells, pool 2 (3 donors) (IL-2 2.5 ng/mL); experiment: as above; settings: 72 h
[14] = tested on: normal primary NK cells, pool 3 (3 donors) (IL-2 2.5 ng/mL); experiment: as above; settings: 72 h
[15] = tested on: normal NK cells expanded with K562-aAPC; experiment: drug sensitivity score (DSS) (DSS units); higher = more sensitive; extreme values may be limits of the assay; settings: 72 h; IL-2 2.5 ng/mL
Procedure: as §1

DERL-7 (IL-2 2.5 ng/mL) [16] = experiment: as above; settings: 72 h
IMC-1 (IL-2 20 ng/mL) [17] = experiment: as above; settings: 72 h
KAI3 (IL-2 2.5 ng/mL) [18] = experiment: as above; settings: 72 h
KHYG-1 (IL-2 2.5 ng/mL) [19] = experiment: as above; settings: 72 h
NK-92 (IL-2 2.5 ng/mL) [20] = experiment: as above; settings: 72 h
NK-YS (IL-2 2.5 ng/mL) [21] = experiment: as above; settings: 72 h
NKL (IL-2 2.5 ng/mL) [22] = experiment: as above; settings: 72 h
SNK-6 (IL-2 2.5 ng/mL) [23] = experiment: as above; settings: 72 h
YT (IL-2 2.5 ng/mL) [24] = experiment: as above; settings: 72 h
[25] = tested on: normal primary NK cells, pool 1 (3 donors) (IL-2 2.5 ng/mL); experiment: as above; settings: 72 h
[26] = tested on: normal primary NK cells, pool 1 (3 donors), resting (IL-2 0 ng/mL); experiment: as above; settings: 72 h
[27] = tested on: normal primary NK cells, pool 2 (3 donors) (IL-2 2.5 ng/mL); experiment: as above; settings: 72 h
[28] = tested on: normal primary NK cells, pool 3 (3 donors) (IL-2 2.5 ng/mL); experiment: as above; settings: 72 h

Nc1nc(Cl)nc2c1ncn2[C@@H]1O[C@H](CO)[C@@H](O)[C@@H]1F [Clofarabine] (max concentration tested 10000 nM)
percent inhibition of viability [%]
Settings	1 nM	10 nM	100 nM	1000 nM	10000 nM
DERL-7 (IL-2 2.5 ng/mL) [2]	-6.34	12.4	98.8	100	100
IMC-1 (IL-2 20 ng/mL) [3]	-5.2	-10.7	83.5	99.8	100
KAI3 (IL-2 2.5 ng/mL) [4]	-5.93	2	84.8	100	103
KHYG-1 (IL-2 2.5 ng/mL) [5]	-5.63	-3.93	98.4	101	102
NK-92 (IL-2 2.5 ng/mL) [6]	-17	2.38	98.2	101	104
NK-YS (IL-2 2.5 ng/mL) [7]	-2.94	-3.43	73.3	96.5	100
NKL (IL-2 2.5 ng/mL) [8]	-14.3	-3.55	97.4	102	105
SNK-6 (IL-2 2.5 ng/mL) [9]	-9.36	-23.6	95	96.3	98.6
YT (IL-2 2.5 ng/mL) [10]	-2.64	-4.64	17.5	78.8	85.4
[1]	-7.69	10	99.8	100	101
[11]	1.34	32.7	95.2	96.8	97.6
[12]	-1.53	61.1	92.3	90.6	93.4
[13]	1.6	18	90.5	95	96.2
[14]	-5.8	12.6	91	98.5	99.3

Settings	drug sensitivity score
DERL-7 (IL-2 2.5 ng/mL) [16]	32.5
IMC-1 (IL-2 20 ng/mL) [17]	27.6
KAI3 (IL-2 2.5 ng/mL) [18]	28
KHYG-1 (IL-2 2.5 ng/mL) [19]	29.9
NK-92 (IL-2 2.5 ng/mL) [20]	30.5
NK-YS (IL-2 2.5 ng/mL) [21]	26.4
NKL (IL-2 2.5 ng/mL) [22]	29.8
SNK-6 (IL-2 2.5 ng/mL) [23]	28.5
YT (IL-2 2.5 ng/mL) [24]	16.8
[15]	32.1
[25]	33.7
[26]	35.8
[27]	31
[28]	30.7

CCN(CC)CCOc1ccc(C(=C(Cl)c2ccccc2)c2ccccc2)cc1 [Clomifene] (max concentration tested 10000 nM)
percent inhibition of viability [%]
Settings	1 nM	10 nM	100 nM	1000 nM	10000 nM
DERL-7 (IL-2 2.5 ng/mL) [2]	4.06	0.91	9.39	20.4	79.7
IMC-1 (IL-2 20 ng/mL) [3]	-0.71	-1.19	4.94	7.46	81.3
KAI3 (IL-2 2.5 ng/mL) [4]	3.86	7.81	10.3	17.6	99.2
KHYG-1 (IL-2 2.5 ng/mL) [5]	0.74	-4.89	7.01	8.03	98
NK-92 (IL-2 2.5 ng/mL) [6]	-3.93	-4.07	20.1	22.8	99.2
NK-YS (IL-2 2.5 ng/mL) [7]	-0.14	0.6	4.95	5.57	51.9
NKL (IL-2 2.5 ng/mL) [8]	9.73	-5.45	18.5	9.46	89.1
SNK-6 (IL-2 2.5 ng/mL) [9]	23.4	4.68	23.5	22.9	96.8
YT (IL-2 2.5 ng/mL) [10]	2.71	-4.92	7.54	1.85	97.5
[1]	-4.27	-4.95	6.21	5.94	49.9
[11]	-14.7	-1.65	-8.5	6.72	89.3
[12]	-1.08	10.5	-7.5	11	90.7
[13]	-3.18	-2.06	-0.72	14.9	80.9
[14]	2.17	1.82	-1.1	13.6	53.4

Settings	drug sensitivity score
DERL-7 (IL-2 2.5 ng/mL) [16]	7.34
IMC-1 (IL-2 20 ng/mL) [17]	5.71
KAI3 (IL-2 2.5 ng/mL) [18]	8.38
KHYG-1 (IL-2 2.5 ng/mL) [19]	6.7
NK-92 (IL-2 2.5 ng/mL) [20]	8.7
NK-YS (IL-2 2.5 ng/mL) [21]	3.68
NKL (IL-2 2.5 ng/mL) [22]	6.51
SNK-6 (IL-2 2.5 ng/mL) [23]	8.37
YT (IL-2 2.5 ng/mL) [24]	5.67
[15]	3.63
[25]	5.98
[26]	6.86
[27]	6.93
[28]	4.97
